From PubChem BioAssay AID248 (DTP/NCI, 2004)
Several values for one entry are separate records, joined by “and”; a condition that tells them apart may be missing. Identical values can stand only once. Inconclusive results and toxic doses are left out. Rule as the data show it: active = T/C of 150% or more; inactive = T/C below 125%.

System: L1210 leukemia ip in BDF1 mice, survival T/C
Assay: NCI In Vivo Anticancer Drug Screen. Data for tumor model L1210 Leukemia (intraperitoneal) in B6D2F1 (BDF1) mice
Details: endpoint: mean survival time, higher = longer survival
Method in brief: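 Value reflects the ratio of survival in compound-treated mice to survival in vehicle-treated controls, with both groups carrying the same transplanted tumor.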

[1] = dose: 50.0 mg/kg/injection, schedule: Q01DX009 (ip), vehicle: saline with Tween-80
[2] = dose: 100.0 mg/kg/injection, schedule: Q01DX009 (ip), vehicle: saline with Tween-80
[3] = dose: 200.0 mg/kg/injection, schedule: Q01DX009 (ip), vehicle: saline with Tween-80
[4] = dose: 50.0 mg/kg/injection, schedule: Q01DX001 (ip), vehicle: saline
[5] = dose: 100.0 mg/kg/injection, schedule: Q01DX001 (ip), vehicle: saline
[6] = dose: 200.0 mg/kg/injection, schedule: Q01DX001 (ip), vehicle: saline
[7] = dose: 400.0 mg/kg/injection, schedule: Q01DX001 (ip), vehicle: saline
[8] = dose: 100.0 mg/kg/injection, schedule: Q04DX003 (ip), vehicle: Klucel (hydroxypropylcellulose) (HPC)
[9] = dose: 200.0 mg/kg/injection, schedule: Q04DX003 (ip), vehicle: Klucel (hydroxypropylcellulose) (HPC)
[10] = dose: 400.0 mg/kg/injection, schedule: Q04DX003 (ip), vehicle: Klucel (hydroxypropylcellulose) (HPC)
[11] = dose: 100.0 mg/kg/injection, schedule: Q04DX003 (ip), vehicle: saline with Tween-80
[12] = dose: 25.0 mg/kg/injection, schedule: Q01DX001 (ip), vehicle: saline
[13] = dose: 100.0 mg/kg/injection, schedule: Q01DX009 (ip), vehicle: Klucel (hydroxypropylcellulose) (HPC)
[14] = dose: 200.0 mg/kg/injection, schedule: Q01DX009 (ip), vehicle: Klucel (hydroxypropylcellulose) (HPC)
[15] = dose: 400.0 mg/kg/injection, schedule: Q01DX009 (ip), vehicle: saline with Tween-80
[16] = dose: 200.0 mg/kg/injection, schedule: Q04DX003 (ip), vehicle: saline with Tween-80

Measured: T/C

O=S(=O)(O)CCO
inactive: dose: 50.0 mg/kg/injection, schedule: Q01DX009 (ip), vehicle: saline 99 % of control | dose: 100.0 mg/kg/injection, schedule: Q01DX009 (ip), vehicle: saline 95 % of control | dose: 100.0 mg/kg/injection, schedule: Q04DX003 (ip), vehicle: saline 97 % of control | dose: 200.0 mg/kg/injection, schedule: Q01DX009 (ip), vehicle: saline 99 % of control | dose: 200.0 mg/kg/injection, schedule: Q04DX003 (ip), vehicle: saline 101 % of control | dose: 400.0 mg/kg/injection, schedule: Q04DX003 (ip), vehicle: saline 101 % of control

C=CCC1CC2CC(C1C)C2(C)C (centres undefined)
inactive: [1] 93 % of control | [2] 101 % of control | [3] 93 % of control

O=S(=O)(ON=C1C=CC(=NOS(=O)(=O)c2ccccc2)C=C1)c1ccccc1
inactive: [4] 96 % of control | [5] 93 % of control | [6] 93 % of control | [7] 93 % of control

CN(C)CCCN=C=NC1CCCCC1
inactive: [8] 98 % of control | [9] 95 % of control

CN(C)CCCc1c2ccccc2nc2ccc(Cl)cc12
inactive: dose: 12.0 mg/kg/injection, schedule: Q01DX009 (ip), vehicle: saline 98 % of control | dose: 25.0 mg/kg/injection, schedule: Q01DX009 (ip), vehicle: saline 101 % of control

ClCc1ccc(-c2ccc(CCl)cc2)cc1
inactive: dose: 30.0 mg/kg/injection, schedule: Q01DX015 (ip), vehicle: carboxymethylcellulose (CMC) 116 % of control | dose: 60.0 mg/kg/injection, schedule: Q01DX015 (ip), vehicle: carboxymethylcellulose (CMC) 106 % of control | dose: 100.0 mg/kg/injection, schedule: Q01DX001 (ip), vehicle: carboxymethylcellulose (CMC) 100 % of control | dose: 120.0 mg/kg/injection, schedule: Q01DX015 (ip), vehicle: carboxymethylcellulose (CMC) 102 % of control | dose: 200.0 mg/kg/injection, schedule: Q01DX001 (ip), vehicle: carboxymethylcellulose (CMC) 104 % of control | dose: 240.0 mg/kg/injection, schedule: Q01DX015 (ip), vehicle: carboxymethylcellulose (CMC) 98 % of control | dose: 300.0 mg/kg/injection, schedule: Q01DX015 (ip), vehicle: carboxymethylcellulose (CMC) 108 % of control | dose: 400.0 mg/kg/injection, schedule: Q01DX001 (ip), vehicle: carboxymethylcellulose (CMC) 105 % of control

CN(C)C(=O)Sc1ccc(S(=O)(=O)F)cc1Cl
inactive: [8] 101 % of control | [9] 106 % of control | [10] 101 % of control

CC(C)(C)CCSC(=N)N
inactive: dose: 25.0 mg/kg/injection, schedule: Q04DX003 (ip), vehicle: saline with Tween-80 98 % of control | dose: 50.0 mg/kg/injection, schedule: Q04DX003 (ip), vehicle: saline with Tween-80 102 % of control | [11] 96 % of control

CCN(CC)c1ccc(SSc2ccc(N(CC)CC)cc2)cc1
inactive: [12] 105 % of control | [4] 100 % of control | [5] 100 % of control

c1ccc(-c2ccc3ncccc3c2)cc1
inactive: [5] 97 % of control | [6] 100 % of control | [7] 105 % of control

CCCCCCCCCCCCCCCCCCNc1nc(SC)ncc1C(=O)OCC
inactive: [12] 103 % of control | [4] 102 % of control | [5] 101 % of control and 102 % of control

CCOC(=O)/C(C#N)=C\c1ccccc1Cl
inactive: dose: 50.0 mg/kg/injection, schedule: Q01DX009 (ip), vehicle: Klucel (hydroxypropylcellulose) (HPC) 98 % of control | [13] 95 % of control | [8] 91 % of control | [14] 100 % of control | [9] 99 % of control

CN(C)C1=CC(=O)C(N(C)C)=CC1=O
inactive: dose: 100.0 mg/kg/injection, schedule: Q01DX001 (ip), vehicle: Klucel (hydroxypropylcellulose) (HPC) 110 % of control | dose: 200.0 mg/kg/injection, schedule: Q01DX001 (ip), vehicle: Klucel (hydroxypropylcellulose) (HPC) 112 % of control | dose: 400.0 mg/kg/injection, schedule: Q01DX001 (ip), vehicle: Klucel (hydroxypropylcellulose) (HPC) 105 % of control

CCNC(=O)N=C1SCCS1
inactive: dose: 100.0 mg/kg/injection, schedule: Q04DX002 (ip), vehicle: saline 118 % of control | dose: 200.0 mg/kg/injection, schedule: Q04DX002 (ip), vehicle: saline 118 % of control | dose: 400.0 mg/kg/injection, schedule: Q04DX002 (ip), vehicle: saline 96 % of control

CN(C)c1ccc2cc(S(=O)(=O)O)cc(O)c2c1
inactive: [2] 102 % of control | [8] 105 % of control | [3] 96 % of control | [9] 95 % of control | [15] 94 % of control | [10] 93 % of control

CC(C)CCOc1ccc(N)c([N+](=O)[O-])c1
inactive: dose: 6.25 mg/kg/injection, schedule: Q01DX009 (ip), vehicle: saline with Tween-80 105 % of control | dose: 12.5 mg/kg/injection, schedule: Q01DX009 (ip), vehicle: saline with Tween-80 100 % of control | dose: 25.0 mg/kg/injection, schedule: Q01DX009 (ip), vehicle: saline with Tween-80 103 % of control | [1] 94 % of control | [11] 97 % of control | [16] 100 % of control

O=C(CCc1ccc(O)cc1)N/N=C/c1cc(Br)ccc1O
inactive: [2] 97 % of control | [11] 95 % of control | [3] 92 % of control | [16] 96 % of control | [15] 92 % of control | dose: 400.0 mg/kg/injection, schedule: Q04DX003 (ip), vehicle: saline with Tween-80 90 % of control

CCCCCCCCOc1ccc(N(C)C(N)=S)cc1
inactive: [8] 97 % of control | [9] 101 % of control | [10] 106 % of control

NC(=O)CC(NC(=O)CCl)C(=O)O (centres undefined)
inactive: [2] 104 % of control | [3] 87 % of control | [15] 86 % of control

CCCCCCCCCCCCCCCCOCCCCCCCCCCCCCCCC
inactive: [13] 96 % of control | dose: 100.0 mg/kg/injection, schedule: Q04DX003 (ip), vehicle: other 103 % of control | [14] 100 % of control | dose: 200.0 mg/kg/injection, schedule: Q04DX003 (ip), vehicle: other 88 % of control | dose: 400.0 mg/kg/injection, schedule: Q01DX009 (ip), vehicle: Klucel (hydroxypropylcellulose) (HPC) 91 % of control | dose: 400.0 mg/kg/injection, schedule: Q04DX003 (ip), vehicle: other 95 % of control

C=C1C(=O)OC2/C=C(\C)CC/C=C(\C)CC(OC(C)=O)C12 (centres undefined)
inactive: [4] 96 % of control | [5] 96 % of control | [6] 107 % of control
